Measurements taken from patent US9278922B2 (ABBVIE INC., priority 2009, dated 2016).
pEC50: −log10 of the molar value.

System: HCV 1b-Con-1 replicon
Assay: HCV 1b-Con-1 replicon assay (luciferase reporter gene, HuH-7 cells)
Type: cell-based, Hepatitis C virus (HCV) genotype 1b-Con1
Settings: Hepatitis C virus, Huh-7, luciferase reporter gene activity in the replicon, in the presence of 5% FBS

`COC(=O)N[C@H](C(=O)N1CSC(C)(C)[C@H]1C(=O)Nc1ccc(CN(Cc2ccc(NC(=O)[C@H]3N(C(=O)[C@@H](NC(=O)OC)C(C)(C)C)CSC3(C)C)cc2)c2ccccc2)cc1)C(C)(C)C` [Example 93, methyl [(1S)-1-{[(4R)-4-{[4-({[4-({[(4R)-3-{(2S)-2-[(methoxycarbonyl)amino]-3,3-dimethylbutanoyl}-5,5-dimethyl-1,3-thiazolidin-4-yl]carbonyl}amino)benzyl](phenyl)amino}methyl)phenyl]carbamoyl}-5,5-dimethyl-1,3-thiazolidin-3-yl]carbonyl}-2,2-dimethylpropyl]carbamate] and `COC(=O)N[C@H](C(=O)N1C[C@@H](F)C[C@H]1C(=O)Nc1ccc(CN(Cc2ccc(NC(=O)[C@@H]3C[C@H](F)CN3C(=O)[C@@H](NC(=O)OC)C(C)(C)C)cc2)c2ccccc2)cc1)C(C)(C)C` [Example 94] fall in the same range of pEC50: 8.00 to 9.00 for the first, 8.00 to 9.00 for the second.

`CCN(CC)[C@@H](C(=O)N1CCC[C@H]1c1nc2cc(CN(Cc3ccc4[nH]c([C@@H]5CCCN5C(=O)[C@@H](c5ccccc5)N(CC)CC)nc4c3)c3ccc(F)cc3)ccc2[nH]1)c1ccccc1` [Example 95, N,N-bis[(2-{(2S)-1-[(2R)-2-(diethylamino)-2-phenylacetyl]pyrrolidin-2-yl}-1H-benzimidazol-5-yl)methyl]-4-fluoroaniline] and `COC(=O)N[C@H](C(=O)N1CCC[C@H]1c1nc2cc(CN(Cc3ccc4[nH]c([C@@H]5CCCN5C(=O)[C@@H](NC(=O)OC)C(C)C)nc4c3)c3ccc(F)cc3)ccc2[nH]1)C(C)C` [Example 96, methyl [(1S)-1-{[(2S)-2-(5-{[(4-fluorophenyl)({2-[(2S)-1-{(2S)-2-[(methoxycarbonyl)amino]-3-methylbutanoyl}pyrrolidin-2-yl]-1H-benzimidazol-5-yl}methyl)amino]methyl}-1H-benzimidazol-2-yl)pyrrolidin-1-yl]carbonyl}-2-methylpropyl]carbamate] cannot be ordered by pEC50: > 9.00 for the first, > 9.00 for the second.

First: COC(=O)N[C@H](C(=O)N1CCC[C@H]1C(=O)Nc1ccc(CN(Cc2ccc(NC(=O)[C@@H]3CCCN3C(=O)[C@@H](NC(=O)OC)[C@@H](C)O)cc2)[C@@H]2CCOC2)cc1)[C@@H](C)O [Example 97, dimethyl ([(3R)-tetrahydrofuran-3-ylimino]bis{methanediylbenzene-4,1-diylcarbamoyl(2S)pyrrolidine-2,1-diyl[(2S,3R)-3-hydroxy-1-oxobutane-1,2-diyl]})biscarbamate]
Second: COC(=O)N[C@H](C(=O)N1CCC[C@H]1C(=O)Nc1ccc(CN(Cc2ccc(NC(=O)[C@@H]3CCCN3C(=O)[C@@H](NC(=O)OC)C(C)(C)O)cc2)c2ccc(F)cc2)cc1)C(C)(C)O [Example 98, dimethyl ([(4-fluorophenyl)imino]bis{methanediylbenzene-4,1-diylcarbamoyl(25)pyrrolidine-2,1-diyl[(2S)-3-hydroxy-3-methyl-1-oxobutane-1,2-diyl]})biscarbamate]
The pEC50 of the first is lower: 6.60 to 7.00 for the first, > 9.00 for the second.

First: COC(=O)N[C@H](C(=O)N1CCC[C@H]1C(=O)Nc1ccc(CN(Cc2ccc3[nH]c([C@@H]4CCCN4C(=O)[C@@H](NC(=O)OC)C(C)(C)O)nc3c2)c2ccc(F)cc2)cc1)C(C)(C)O [Example 99, 3-hydroxy-N-(methoxycarbonyl)-L-valyl-N-[4-({(4-fluorophenyl)[(2-{(2S)-1-[3-hydroxy-N-(methoxycarbonyl)-L-valyl]pyrrolidin-2-yl}-1H-benzimidazol-5-yl)methyl]amino}methyl)phenyl]-L-prolinamide]
Second: COC(=O)N[C@H](C(=O)N1CC[C@H]1C(=O)Nc1ccc(CN(Cc2ccc(NC(=O)[C@@H]3CCN3C(=O)[C@@H](NC(=O)OC)C(C)(C)C)cc2)c2ccc(F)cc2)cc1)C(C)(C)C [Example 100, methyl [(1S)-1-{[(2S)-2-{[4-({(4-fluorophenyl)[4-({[(2S)-1-{(2S)-2-[(methoxycarbonyl)amino]-3,3-dimethylbutanoyl}azetidin-2-yl]carbonyl}amino)benzyl]amino}methyl)phenyl]carbamoyl}azetidin-1-yl]carbonyl}-2,2-dimethylpropyl]carbamate]
The pEC50 of the first is higher: > 9.00 for the first, 8.00 to 9.00 for the second.
